Experimental findings from patent publication US9732076B2, “Solid oral dosage formulation of HCV inhibitor in the amorphous state” (Boehringer Ingelheim International GmbH, priority 2013, dated 2017) are described below.

SMILES strings stand for the structures.

This data set can be described thus: Ames test / genotoxicity of degradation product. (In the Ames test, an excess of revertant colonies over the control signals mutagenicity.)

Take `C=C[C@@H]1C[C@]1(N)C(=O)O` [Compound X]: the “Ames result / genotoxicity” value is on record as “Ames positive”.
